Source: article PMC6386598 (Cell chemical biology, 2018)

Experiment: Calcein leakage from SUVs, stated for several vesicle compositions together
Settings: control peptide; all SUVs tested: PC:PE (60:40), PC:PE (80:20), PC:PG (60:40)

melittin
calcein leakage (in words): induced calcein leakage from all SUVs tested
